According to ChEMBL document CHEMBL5727946, “PD-1/PD-L1 inhibitors” (2020):

Target: Programmed cell death protein 1/Programmed cell death 1 ligand 1 (Homo sapiens, UniProt Q15116+Q9NZQ7)
Assay: PD-1/PD-L1 & CTLA/CD80 Biochemical Protein-Protein Interaction Assay: Compounds were tested in biochemical protein-protein interaction assays to determine if they can specifically block the interaction between the extracellular domains of PD-1/PD-L1 or CTLA/CD80. Binding of the protein pairs is measured using a bead based Amplified Luminescent Proximity Homogeneous Assay (ALPHA) platform. […] Final protein concentration in the assays were 0.3 nM (His tagged PD-L1), 2.5 nM (biotinylated Fc-PD-1), 1 nM (His tagged CTLA4) and 1 nM (biotinylated CD80).
Assay type: protein-complex assay

Sequence of Programmed cell death protein 1/Programmed cell death 1 ligand 1 (Q15116 whole entry, the tested form may be a part): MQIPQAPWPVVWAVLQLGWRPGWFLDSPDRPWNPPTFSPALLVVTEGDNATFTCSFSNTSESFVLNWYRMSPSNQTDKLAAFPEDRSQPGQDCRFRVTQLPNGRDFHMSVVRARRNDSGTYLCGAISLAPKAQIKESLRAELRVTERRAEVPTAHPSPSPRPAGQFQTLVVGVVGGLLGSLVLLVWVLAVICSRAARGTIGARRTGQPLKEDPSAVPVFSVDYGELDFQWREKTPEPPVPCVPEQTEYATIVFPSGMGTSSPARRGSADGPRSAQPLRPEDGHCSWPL
Sequence of Programmed cell death protein 1/Programmed cell death 1 ligand 1 (Q9NZQ7 whole entry, the tested form may be a part): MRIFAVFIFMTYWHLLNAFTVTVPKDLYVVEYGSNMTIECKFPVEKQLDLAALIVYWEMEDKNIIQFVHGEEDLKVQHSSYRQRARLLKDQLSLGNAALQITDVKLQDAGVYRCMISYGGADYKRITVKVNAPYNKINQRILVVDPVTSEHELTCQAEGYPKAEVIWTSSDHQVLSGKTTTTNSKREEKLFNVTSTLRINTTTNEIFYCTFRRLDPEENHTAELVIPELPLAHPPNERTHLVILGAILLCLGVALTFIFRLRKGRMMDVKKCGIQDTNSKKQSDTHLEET

| SMILES | IC50 |
| --- | --- |
| COc1nc(O[C@H]2CCc3c(-c4cccc(-c5cnc([C@@H](C)NC[C@H]6CCC(=O)N6)c(OC)n5)c4Cl)cccc32)c(Cl)cc1CN1CC[C@@H](C(=O)O)C1 | ≤ 0.064 nM |
| CCS(=O)(=O)NC(=O)[C@@H]1CCN(Cc2cc(Cl)c(O[C@H]3CCc4c(-c5cccc(-c6ccc(CNC[C@@H]7CCC(=O)N7)c(OC)n6)c5Cl)cccc43)nc2OC)C1 | 0.117 nM |
| COc1nc(-c2cccc(-c3cccc4c3CC[C@@H]4Oc3nc(OC)c(CN4CC[C@@H](C(=O)NS(C)(=O)=O)C4)cc3Cl)c2Cl)ccc1CN1CC(C)(O)C1 | ≤ 0.064 nM |
| COc1nc(-c2cccc(-c3cccc4c3CC[C@@H]4Oc3nc(OCc4cncc(Cl)c4)c(CNC4(C(=O)O)CC4)cc3C(F)(F)F)c2Cl)ccc1CNC[C@@H]1CCC(=O)N1 | 0.101 nM |
| COc1nc(-c2cccc(-c3cccc4c3CC[C@@H]4Oc3nc(OC)c(CN4CC[C@@H](C(=O)NS(=O)(=O)C(F)F)C4)cc3Cl)c2Cl)ccc1CNC[C@@H]1CCC(=O)N1 | 0.152 nM |
| COc1nc(-c2cccc(-c3cccc4c3CC[C@@H]4Oc3nc(OC)c(CN4CC(C(=O)NS(=O)(=O)C(F)F)C4)cc3Cl)c2Cl)ccc1CNC[C@@H]1CCC(=O)N1 | 0.199 nM |
| COc1nc(-c2cccc(-c3cccc4c3CC[C@@H]4Oc3nc(OCc4cncc(C#N)c4)c(CN4CC[C@@H](C(=O)O)C4)cc3Cl)c2Cl)ccc1CNC[C@@H]1CCC(=O)N1 | ≤ 0.064 nM |
| COc1nc(-c2cccc(-c3cccc4c3CC[C@@H]4Oc3nc(OC)c(CN4CCC[C@@H]4C(=O)O)cc3Cl)c2Cl)ccc1CNC[C@@H]1CCC(=O)N1 | ≤ 0.064 nM |
| COc1nc(-c2cccc(-c3cccc4c3CC[C@@H]4Oc3nc(OC)c(CN4CC[C@@H](C(=O)NS(C)(=O)=O)C4)cc3Cl)c2Cl)ccc1CNC[C@@H]1CCC(=O)N1 | ≤ 0.064 nM |
| COc1nc(-c2cccc(-c3cccc4c3CC[C@@H]4Oc3nc(OC)c(CN4CCC[C@H]4C(=O)O)cc3Cl)c2Cl)ccc1CNC[C@@H]1CCC(=O)N1 | ≤ 0.064 nM |
| COc1nc(-c2cccc(-c3cccc4c3CC[C@@H]4Oc3nc(OC)c(CN4CC(C(=O)NS(C)(=O)=O)C4)cc3Cl)c2Cl)ccc1CN1CC(C)(O)C1 | 0.088 nM |
| COc1nc(-c2cccc(-c3cccc4c3CC[C@@H]4Oc3nc(OCc4cncc(F)c4)c(CN4CC5(C(=O)O)CCC4CC5)cc3Cl)c2Cl)ccc1CNC[C@@H]1CCC(=O)N1 | ≤ 0.064 nM |
| COc1nc(-c2cccc(-c3cccc4c3CC[C@@H]4Oc3nc(OC)c(CNC4(C(=O)O)CCC4)cc3Cl)c2Cl)ccc1CNC[C@@H]1CCC(=O)N1 | ≤ 0.064 nM |
| CCOc1nc(O[C@H]2CCc3c(-c4cccc(-c5ccc(CNC[C@@H]6CCC(=O)N6)c(OC)n5)c4Cl)cccc32)c(Cl)cc1CN1CC2(C(=O)O)CCC1CC2 | ≤ 0.064 nM |
| COc1nc(-c2cccc(-c3cccc4c3CC[C@@H]4Oc3nc(OCc4cncc(C#N)c4)c(CN4CC[C@H](C(=O)O)C4)cc3Cl)c2Cl)ccc1CNC[C@@H]1CCC(=O)N1 | ≤ 0.064 nM |
| COc1nc(-c2cccc(-c3cccc4c3CC[C@@H]4Oc3nc(OC)c(CN4CC(C(=O)O)C4)cc3Cl)c2Cl)ccc1CN1CC(C)(O)C1 | ≤ 0.064 nM |
| COc1nc(-c2cccc(-c3cccc4c3CC[C@@H]4Oc3nc(OCC#N)c(CN4CC5(C(=O)O)CCC4CC5)cc3Cl)c2Cl)ccc1CNC[C@@H]1CCC(=O)N1 | ≤ 0.064 nM |
| COc1nc(-c2cccc(-c3cccc4c3CC[C@@H]4Oc3nc(OCc4cncc(C#N)c4)c(CN4CC5(C(=O)O)CCC4CC5)cc3Cl)c2Cl)ccc1CNC[C@@H]1CCC(=O)N1 | ≤ 0.064 nM |
| COc1nc(-c2cccc(-c3cccc4c3CC[C@@H]4Oc3nc(OC)c(CN4CC[C@H](C(=O)NS(C)(=O)=O)C4)cc3Cl)c2Cl)ccc1CNC[C@@H]1CCC(=O)N1 | ≤ 0.064 nM |
| CCOC(=O)C1CN(Cc2cc(Cl)c(O[C@H]3CCc4c(-c5cccc(-c6ccc(CNC[C@@H]7CCC(=O)N7)c(OC)n6)c5Cl)cccc43)nc2OC)C1 | 1.99 nM |
| COc1nc(-c2cccc(-c3cccc4c3CC[C@@H]4Oc3nc(OC)c(CN4CCC[C@@H](C(=O)NS(C)(=O)=O)C4)cc3Cl)c2Cl)ccc1CNC[C@@H]1CCC(=O)N1 | 0.068 nM |
| COC(=O)[C@@H]1CCN(Cc2cc(Cl)c(O[C@H]3CCc4c(-c5cccc(-c6ccc(CNC[C@@H]7CCC(=O)N7)c(OC)n6)c5Cl)cccc43)nc2OC)C1 | 3.9 nM |
| COc1nc(-c2cccc(-c3cccc4c3CC[C@@H]4Oc3nc(OC)c(CNC4(C(=O)O)CC4)cc3Cl)c2Cl)ccc1CNC[C@@H]1CCC(=O)N1 | ≤ 0.064 nM |
| COc1nc(-c2cccc(-c3cccc4c3CC[C@@H]4Oc3nc(OC)c(CNC4(C(=O)O)CCOCC4)cc3Cl)c2Cl)ccc1CNC[C@@H]1CCC(=O)N1 | ≤ 0.064 nM |
| COc1nc(-c2cccc(-c3cccc4c3CC[C@@H]4Oc3nc(OC)c(CN4CCC[C@@]4(C)C(=O)O)cc3Cl)c2Cl)ccc1CNC[C@@H]1CCC(=O)N1 | ≤ 0.064 nM |
| COc1nc(-c2cccc(-c3cccc4c3CC[C@@H]4Oc3nc(OC)c(CN[C@@H]4CCC[C@@H]4C(=O)O)cc3Cl)c2Cl)ccc1CNC[C@@H]1CCC(=O)N1 | ≤ 0.064 nM |
| COc1nc(-c2cccc(-c3cccc4c3CC[C@@H]4Oc3nc(OC(F)F)c(CN4CC5(C(=O)O)CCC4CC5)cc3Cl)c2Cl)ccc1CNC[C@@H]1CCC(=O)N1 | 0.169 nM |
| CCOc1nc(O[C@H]2CCc3c(-c4cccc(-c5ccc(CNC[C@@H]6CCC(=O)N6)c(OC)n5)c4Cl)cccc32)c(Cl)cc1CN1CC[C@H](C(=O)O)C1 | ≤ 0.064 nM |
